Patent publication US20070099915A1, “INHIBITORS OF THE HIV INTEGRASE ENZYME” (PFIZER INC., priority 2005, published 2007)
Like-named read-outs stand apart in the source and are kept apart here.

Tests used:
[1] = tested on: HIV-1 RF virus in CEM-SS cells; assay: HIV-1 cell protection assay (XTT dye reduction); type: cell-based
Summary of the method: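 Infected CEM-SS cultures incubated six days, then XTT with phenazine methosulfate added for 4 h; viability read as formazan absorbance at 450 nm. Formazan expressed as percent of uninfected, compound-free cells; CC50 from uninfected treated cells, therapeutic index as CC50/EC50.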

[2] = molecular target: T1, Full-length wild type HIV-1 integrase (SF1) (Human immunodeficiency virus type 1 group M subtype B, UniProt P04585); assay: Integrase strand-transfer scintillation proximity assay; type: biochemical
T1 construct: made in house; host or cells: E. coli BL21 (DE3)

[3] = Human immunodeficiency virus 1, 144 h, RF strain of HIV-1, CEM-SS cells, XTT read-out after six days, read-out: EC50
[4] = strand-transfer SPA, 246 nM integrase, 50 nM host DNA, 37° C., 50 min, read-out: IC50

SMILES | EC50 [1, 3] | IC50 [2, 4] | EC50 ([1]; Human immunodeficiency virus 1, CEM-SS, 144 h) | IC50 [2]
CCCOCCOCc1cn(Cc2ccc(F)cc2)c2cnc3c(c12)CCN(O)C3=O [Example 75, 3-(4-fluorobenzyl)-7-hydroxy-1-[(2-propoxyethoxy)methyl]-3,7,8,9-tetrahydro-6H-pyrrolo[2,3-c]-1,7-naphthyridin-6-one] | 0.7 nM | 17 nM |  | 
O=C1c2ncc3c(c(CO)cn3Cc3ccc(F)cc3)c2CCN1O [Example 25, 3-(4-fluorobenzyl)-7-hydroxy-1-(hydroxymethyl)-3,7,8,9-tetrahydro-6H-pyrrolo[2,3-c]-1,7-naphthyridin-6-one] |  |  | 3 nM | 12 nM
O=C1c2ncc3c(c(CN4CCCC(F)(F)C4)cn3Cc3ccc(F)cc3)c2CCN1O [Example 39] | 0.279 nM | 10.3 nM |  | 
CCOCCOCc1cn(Cc2ccc(F)cc2)c2cnc3c(c12)CCN(O)C3=O [Example 31, 1-[(2-ethoxyethoxy)methyl]-3-(4-fluorobenzyl)-7-hydroxy-3,7,8,9-tetrahydro-6H-pyrrolo[2,3-c]-1,7-naphthyridin-6-one] | 5 nM | 33 nM |  | 
CCCCOCCOCc1cn(Cc2ccc(F)cc2)c2cnc3c(=O)n(O)ccc3c12 [Example 82, 1-[(2-butoxyethoxy)methyl]-3-(4-fluorobenzyl)-7-hydroxy-3,7-dihydro-6H-pyrrolo[2,3-c]-1,7-naphthyridin-6-one] | 0.37 nM | 10 nM |  | 
CN1CCN(CCc2cn(Cc3ccc(F)cc3)c3cnc4c(c23)CCN(O)C4=O)CC1=O [Example 119, 3-(4-fluorobenzyl)-7-hydroxy-1-[2-(4-methyl-3-oxopiperazin-1-yl)ethyl]-3,7,8,9-tetrahydro-6H-pyrrolo[2,3-c]-1,7-naphthyridin-6-one] | 70 nM | 12 nM |  | 
O=C1c2ncc3c(c(CN4CCCCCC4)cn3Cc3ccc(F)cc3)c2CCN1O [Example 98, 1-(azepan-1-ylmethyl)-3-(4-fluorobenzyl)-7-hydroxy-3,7,8,9-tetrahydro-6H-pyrrolo[2,3-c]-1,7-naphthyridin-6-one] | 13 nM | 38 nM |  | 
C[C@@H]1CN(Cc2cn(Cc3ccc(F)cc3)c3cnc4c(c23)CCN(O)C4=O)C[C@H](C)O1 [Example 45, 1-{[(2R,6S)-2,6-dimethylmorpholin-4-yl]methyl}-3-(4-fluorobenzyl)-7-hydroxy-3,7,8,9-tetrahydro-6H-pyrrolo[2,3-c]-1,7-naphthyridin-6-one] | 0.45 nM | 9.07 nM |  | 
O=C1c2ncc3c(c(CNCc4ccc(F)c(F)c4)cn3Cc3ccc(F)cc3)c2CCN1O [Example 48, 1-{[(3,4-difluorobenzyl)amino]methyl}-3-(4-fluorobenzyl)-7-hydroxy-3,7,8,9-tetrahydro-6H-pyrrolo[2,3-c]-1,7-naphthyridin-6-one] | 1 nM | 16.8 nM |  | 
O=C1c2ncc3c(c(COCC4CCC4)cn3Cc3ccc(F)cc3)c2CCN1O [Example 79, 1-[(cyclobutylmethoxy)methyl]-3-(4-fluorobenzyl)-7-hydroxy-3,7,8,9-tetrahydro-6H-pyrrolo[2,3-c]-1,7-naphthyridin-6-one] | 1 nM | 10 nM |  | 
CCCCOCCOCc1cn(Cc2ccc(F)cc2)c2cnc3c(c12)CCN(O)C3=O [Example 59] | 4.9 nM | 16 nM |  | 
O=C1c2ncc3c(c(CCN4CCCC4)cn3Cc3ccc(F)cc3)c2CCN1O [Example 103, 3-(4-fluorobenzyl)-7-hydroxy-1-(2-(pyrrolidin-1-yl)ethyl)-8,9-dihydro-3H-pyrrolo[2,3-c][1,7]naphthyridin-6(7H)-one] | 18 nM | 24 nM |  | 
COc1cccc(CCOCc2cn(Cc3ccc(F)cc3)c3cnc4c(c23)CCN(O)C4=O)c1 [Example 66] | 1 nM | 13 nM |  | 
C[C@H](CO)NCc1cn(Cc2ccc(F)cc2)c2cnc3c(c12)CCN(O)C3=O [Example 33, 3-(4-fluorobenzyl)-7-hydroxy-1-({[(1R)-2-hydroxy-1-methylethyl]amino}methyl)-3,7,8,9-tetrahydro-6H-pyrrolo[2,3-c]-1,7-naphthyridin-6-one] | 13 nM | 21 nM |  | 
